The subject of one series is T-ALL PDX cells. The experiment in a line: Transcriptome profiling (Affymetrix microarray) of T-ALL PDX in response to anti-CD3. In kind it is in vivo, NSG mice. Conditions: 40 μg, 6 hours; for expression of genes of interest (TNFR super family pathway, PD1): FIG. 1B; for TCR-induced signature: number of deregulated genes: 2X, p-value<0.05, common to both monoclonal antibodies, in vivo. The text has this: Leukemic cells were then collected, flow-cytometry sorted, RNA isolated and analyzed using human Affymetrix arrays. […] FC: Fold Change. C RNA expression analysis (digitalized numeration of transcripts-mRNA) of genes of interest in M106 xenograft overtime after OKT3 treatment using Nanostring arrays: TNFα, LTα, TNFRSF9 (4-1BB), TNFRSF1B (TNFR2), TNFRSF4 (OX40) and PDCD1 (PD1). D Flow cytometry analysis of TNFRSF1B (TNFR2), TNFRSF1A (TNFR1), TNFRSF9 (4-1BB), TNFRSF4 (OX40) and PDCD1 (PD 1) cell surface expression in leukemic cells isolated from mice treated with 40μg of control IgG or OKT3 for 24h.
Total RNA was isolated from flow-cytometry-sorted leukemic cells (FSChi, hCD7+, hCD 45+) (6 hours following treatment with either 40 μg anti-CD 3 mAb or control IgG 2a antibody), using the Rneasy kit (QIAGEN). cRNA synthesis and hybridization of GeneChip Human Gene 2.0ST Array (Affymetrix) were according to the manufacturer's instructions, as described (http: //www-microarrays. u-strasbg. fr). A paired Student's t-test was performed to compare gene intensities in the different biological replicates. […] Hierarchical clustering analysis and pathway analyses on regulated genes (KEGG) were performed by Genosplice company.

Series [1] has as its system caspase 8 activity in T-ALL cells. The series is described as follows: Caspase 8 activity by flow cytometry in primary leukemic cells from treated leukemic mice. To be noted: in vivo, 6 h; FIG. 2. Further details: species or system NSG mice. Here is the method: FIG. 2: Caspase 8 activity as measured by flow cytometry in primary leukemic cells collected from leukemic mice treated by control IgG (n=3) or anti-CD3 (OKT3) (n=3) mAbs for 6 h.
Cell suspensions prepared from mouse lymphoid organs, bone marrow, or blood were stained with fluorochrome-labeled antibodies and analyzed on a FACSCanto cytometer (BD Biosciences), as recommended by manufacturer. Data are analyzed using Diva, CellQuest (BD Biosciences) and FlowJo (TreeStar) softwares. Antibodies used are: CD7-FITC (4H9), CD45-APC (2D4) (eBioscience), PD1-Alexa Fluor 647 (EH12.2H7) (Biolegend).
In general terms: Flow cytometry measures light scatter and fluorescence of single cells or particles in a stream.

Series [2] relates to TCRαβ+ and TCRγδ+ T-ALL patients-derived xenografts. Conditions: cited from earlier work.
For series [3] the following is noted: in vivo; cited from earlier work.

Take “OKT3: anti-CD3ε monoclonal antibody (IgG2a)”: in the series on T-ALL PDX cells, the “expression of genes of interest (TNFR super family pathway, PD1)” value is “significantly upregulated” and the “TCR-induced signature: number of deregulated genes” value was ~600. Besides, the “caspase 8 activity in T-ALL cells” value in series [1] was “fast induction”.
foralumab: a fully human anti-CD3 mAb: the “final outcome of monotherapy” value in series [2] (mice carrying TCR+ T-ALL PDX) is “leukemia relapse and resistance to TCR-directed therapy”. In addition, in series [2] (monotherapy of T-ALL PDX), the “anti-leukemic effects over time” value was “profound anti-leukemic effects”, the host survival entry is “improved host survival”, the leukemic cells apoptosis result is given as “within hours” and the remission entry was “durable remission”. Besides, in series [3], the “adverse effects in humans” value is “only minor adverse effects”.
As for “teplizumab: a humanized, mutated version of OKT3 which is FDA-approved in prevention of type I diabetes”, in the series with T-ALL PDX cells, the “expression of genes of interest (TNFR super family pathway, PD1)” value was “significantly upregulated” and the “TCR-induced signature: number of deregulated genes” value was ~600. In addition, the “adverse effects in humans” value in series [3] was “only minor adverse effects”.

(Values after patent US20260284190A1, “METHODS FOR THE TREATMENT OF T-CELL ACUTE LYMPHOBLASTIC LEUKEMIA” (Institut Curie, priority 2023, published 2026).)
